Measured values as given in article PMC9423655, “Huntington’s disease phenotypes are improved via mTORC1 modulation by small molecule therapy” (PLoS ONE, 2022).

Key:
Sestrin2 = test system: Sestrin2; parameters: method as in PMID 30858438, PMID 30990795; details: cited from earlier work
mTORC1 [1] = test system: mTORC1; parameters: method as in PMID 30858438, PMID 30990795; details: cited from earlier work
medial prefrontal cortex = test system: medial prefrontal cortex; parameters: method as in PMID 30990795; details: cited from earlier work
mTORC1 [2] = experiment: mTORC1 activation (pS6K1 immunoblot) in leucine-starved HEK293T cells; type: cell-based; details: HEK293T cells starved of leucine 50 minutes, treatment 10 minutes
Procedure: (§1) All cell lines were cultured in DMEM (Corning, #MT10013CV) supplemented with 10% heat-inactivated FBS (Gibco, #16140–071). All cell lines were maintained at 37°C and 5% CO2. For amino acid starvation, cells were rinsed once with and incubated Amino acid-free RPMI (US Biologicals, #R8999-04A) supplemented with 10% dialyzed FBS (Gibco, #26400044) for 50 min followed by treatment with NV-5297, leucine, or vehicle for 10 minutes. For leucine starvation, cells were rinsed once with and incubated in leucine-free DMEM (AthenaES, #0420) supplemented with 10% dialyzed FBS (Gibco, #26400044) for 50 minuted followed by treatment with NV-5297, leucine, or vehicle for 10 minutes.
(A) Activation of the mTORC1 pathway by NV-5297. […] (B) NV-5297 disrupts Sestrin2/GATOR2 in the in vitro Sesn2/WDR24 protein-protein interaction assay in a dose-dependent manner. […] Representative immunoblots of ^T389pS6K1 and quantification of the normalized level of ^T389pS6K1 from 8 independent experiments (F) show TORC1 activity in unedited HEK-293T cells, HEK-293T cells deficient for Sestrin 1 (Sesn1), 2 (Sesn2) and 3 (Sesn3) (D) or HEK-293T cells deficient for the GATOR1 component Nprl3 (E) after 50 minutes leucine starvation followed by the addition of vehicle, NV-5297 or leucine for 10 minutes. […]

[3] = molecular target: T1, Sestrin2/GATOR2 interaction (Homo sapiens, UniProt P58004); experiment: Intact cells-based Sestrin2/GATOR2 protein-protein interaction assay, Flag-WDR24 293T cells; type: cell-based; details: leucine-starved flag-WDR24 HEK-293T cells, 10 minutes, S1C Fig
T1 construct: endogenous in cells; host or cells: Flag-WDR24 293T (HEK293T) cells
T1 sequence (P58004 1-480): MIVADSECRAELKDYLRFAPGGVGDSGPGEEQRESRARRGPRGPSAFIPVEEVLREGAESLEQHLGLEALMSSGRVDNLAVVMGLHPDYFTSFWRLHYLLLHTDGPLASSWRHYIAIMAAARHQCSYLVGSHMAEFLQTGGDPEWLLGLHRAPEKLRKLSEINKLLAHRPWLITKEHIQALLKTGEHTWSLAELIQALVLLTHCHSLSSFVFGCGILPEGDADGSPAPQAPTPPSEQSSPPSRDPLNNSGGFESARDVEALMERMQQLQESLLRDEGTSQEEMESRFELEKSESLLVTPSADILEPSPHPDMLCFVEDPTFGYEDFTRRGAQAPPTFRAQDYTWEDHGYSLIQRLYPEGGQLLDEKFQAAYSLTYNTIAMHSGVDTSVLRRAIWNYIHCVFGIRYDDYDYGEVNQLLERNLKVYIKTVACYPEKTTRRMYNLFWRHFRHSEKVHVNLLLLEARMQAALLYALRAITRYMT
Procedure: Flag-WDR24 293T cells were washed and placed in leucine-free DMEM supplemented 10% dFBS for 50 minutes followed by treatment with NV-5297, leucine or vehicle for 10 minutes. Cells were rinsed once with ice-cold PBS and immediately lysed with Triton lysis buffer (1% Triton, 10 mM β-glycerol phosphate, 10 mM pyrophosphate, 40 mM Hepes pH 7.4, 2.5 mM MgCl2 and 1 tablet of EDTA-free protease inhibitor). The cell lysates were cleared by centrifugation at 13,200 rpm at 4°C in a microcentrifuge for 10 minutes. Prior to immunoprecipitations, an aliquot of lysate was taken for SDS-PAGE and immunoblotting for pS6K1, S6K1 and tubulin. For anti-FLAG immunoprecipitations, the FLAG-M2 affinity gel was washed 3 times with Triton lysis buffer, and 30 μl of a 50/50 slurry of the FLAG-M2 affinity gel was then added to approximately 2 mg of clarified cell lysates and incubated with rotation for 3 hours at 4°C. Following immunoprecipitation, the beads were washed one time with Triton wash buffer containing 500 mM NaCl. Immunoprecipitated proteins were denatured, resolved by SDS-PAGE, and analyzed by immunoblotting.
Next, Sestrin2/GATOR2 protein-protein interactions in response to NV-5297 were measured using cell-free assays and in vitro. For this, HEK293T cells stably expressing flag-WDR24, a component of GATOR2 [44], were used. The cell-free assays utilized Sestrin2/GATOR2 complexes immunoprecipitated from amino acid-starved cells with an anti-flag antibody.

SesnTKO HEK293T cells = experiment: mTORC1 activation (p70S6K1) in HEK293T cells null for all three Sestrin isoforms; type: cell-based; details: leucine-starved 50 minutes, treatment 10 minutes
Procedure: as §1
(§2) To ascertain if Sestrins and the GATOR pathway are required for NV-5297 activity, we tested mTORC1 activation in cells null for either all three Sestrin isoforms [SesnTKO] or for the GATOR1 component Npr13 [Npr13KO] [44]. […]
(§3) (A) Activation of the mTORC1 pathway by NV-5297. […] Representative immunoblots of ^T389pS6K1 and quantification of the normalized level of ^T389pS6K1 from 8 independent experiments (F) show TORC1 activity in unedited HEK-293T cells, HEK-293T cells deficient for Sestrin 1 (Sesn1), 2 (Sesn2) and 3 (Sesn3) (D) or HEK-293T cells deficient for the GATOR1 component Nprl3 (E) after 50 minutes leucine starvation followed by the addition of vehicle, NV-5297 or leucine for 10 minutes. […]

Npr13KO HEK293T cells = experiment: mTORC1 activation (p70S6K1) in HEK293T cells null for GATOR1 component Nprl3; type: cell-based; details: leucine-starved 50 minutes, treatment 10 minutes
Procedure: as §1, §2, §3

Row | Compound | Sestrin2 binding (Sestrin2) | mTORC1 activation in peripheral tissues and CNS (mTORC1 [1]) | synaptic formation in the medial prefrontal cortex (medial prefrontal cortex) | mTORC1 activation measured by phosphorylated S6K1 (pS6K1 / p70S6K1) (mTORC1 [2]) | p70S6K1 (T389 pS6K1) level [3] | p70S6K1 levels (SesnTKO HEK293T cells) | p70S6K1 levels (Npr13KO HEK293T cells)
1 | CC(C)(C[C@H](N)C(=O)O)C(F)F [NV-5138] | binds Sestrin2 | transiently activates mTORC1 | improved synaptic formation |  |  |  | 
2 | CC(C)C[C@H](N)C(=O)O [leucine, reference compound] |  |  |  | activates mTORC1 in leucine-starved HEK293T cells in a dose-dependent manner | Dose-dependent activation of mTORC1 | remained unchanged | remained unchanged
